Results: patent US9241916B2, “Cognitive performance with sirtuin activators” (President and Fellows of Harvard College, priority 2005, dated 2016)
Entries after “also recorded” stand apart in the source; their conditions may differ.

Legend:
C57BL/6J mice = test: Context- and tone-dependent Pavlovian fear conditioning, icv. injection; assay type: in vivo; settings: vs. vehicle
Excerpt: A fundamental type of learning is associative learning that can be analyzed in rodents using the pavlovian fear conditioning paradigm (Fendt and Fanselow, 1999; Fischer et al., 2003). As fear conditioning is a robust and commonly used method to analyze learning and allows to delineate the involvement of distinct brain structures in the learning process, we choose this paradigm to investigate the effect of reveratrol on learning. The principle of Pavlovian fear conditioning is as follows. During the training procedure mice are exposed to a novel context (context 1), consisting of an observation chamber with defined lightning, odor, background noise and geometry. After exploring this novel environment for 180 s the animals are exposed to a tone for 30 s followed by a mild electric foot shock for 2 s. On the basis of associative learning mice display aversive freezing behavior during a memory test consisting of re-expose to the conditioning context 24 h after the training. […] Tone-dependent fear memories can be analyzed by presenting the tone in context 2. Freezing is an inborn behavior that rodents express in threatening situations. It is defined as the complete absence of movement, except respiration and heartbeat. Whereas mice display no freezing behavior during training, a significant increase of freezing behavior is observed upon re-exposure to the conditioned context only. Therefore, freezing behavior is commonly used to quantify the amount of learning. C57BL/6J mice were anesthetized and microcannula (PlasticOne; AP −0 mm, lateral 1 mm, depth 2 mm) were implanted into the lateral brain ventricles (icv). […] The animals were trained by context- and tone-dependent fear conditioning 24 h after the last icv. injection and memory retention was analyzed the following day (see FIG. 1A). […] The mice were tested for memory retention 24 h later by re-exposure to the conditioning context.

mice [1] = test: Ethanol-induced impairment of context-dependent fear conditioning; assay type: in vivo
Excerpt: (§1) The principle of Pavlovian fear conditioning is as follows. During the training procedure mice are exposed to a novel context (context 1), consisting of an observation chamber with defined lightning, odor, background noise and geometry. After exploring this novel environment for 180 s the animals are exposed to a tone for 30 s followed by a mild electric foot shock for 2 s. On the basis of associative learning mice display aversive freezing behavior during a memory test consisting of re-expose to the conditioning context 24 h after the training. […] Tone-dependent fear memories can be analyzed by presenting the tone in context 2. Freezing is an inborn behavior that rodents express in threatening situations. It is defined as the complete absence of movement, except respiration and heartbeat. […] Therefore, freezing behavior is commonly used to quantify the amount of learning.

Sirt1 deacetylase = target: T1, Sirt1 deacetylase (Homo sapiens, UniProt Q96EB6); settings: Howitz et al., 2003; Wood et al., 2004; cited from earlier work
T1 sequence (Q96EB6 1-747): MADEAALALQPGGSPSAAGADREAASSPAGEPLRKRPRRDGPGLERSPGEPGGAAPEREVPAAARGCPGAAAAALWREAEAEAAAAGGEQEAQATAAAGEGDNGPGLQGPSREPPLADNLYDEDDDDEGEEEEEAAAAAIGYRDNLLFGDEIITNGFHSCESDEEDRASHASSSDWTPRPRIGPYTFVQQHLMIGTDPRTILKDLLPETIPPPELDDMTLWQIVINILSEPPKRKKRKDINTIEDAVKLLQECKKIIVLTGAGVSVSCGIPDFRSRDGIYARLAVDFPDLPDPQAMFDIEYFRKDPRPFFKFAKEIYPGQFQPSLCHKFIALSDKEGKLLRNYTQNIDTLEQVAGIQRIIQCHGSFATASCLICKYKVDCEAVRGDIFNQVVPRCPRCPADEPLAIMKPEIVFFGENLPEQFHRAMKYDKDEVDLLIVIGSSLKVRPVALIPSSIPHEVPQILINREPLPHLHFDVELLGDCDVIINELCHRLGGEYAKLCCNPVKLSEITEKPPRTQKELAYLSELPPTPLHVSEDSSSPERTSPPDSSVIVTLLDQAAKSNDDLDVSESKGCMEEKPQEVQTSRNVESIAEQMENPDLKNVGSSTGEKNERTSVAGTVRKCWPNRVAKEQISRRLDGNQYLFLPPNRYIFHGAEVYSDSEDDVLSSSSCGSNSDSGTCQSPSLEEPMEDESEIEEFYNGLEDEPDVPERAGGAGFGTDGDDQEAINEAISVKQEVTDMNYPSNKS

mice [2] = test: Context- and tone-dependent fear conditioning, intra-hippocampal (i.h.) injection; assay type: in vivo; settings: vs. vehicle
Excerpt: The principle of Pavlovian fear conditioning is as follows. During the training procedure mice are exposed to a novel context (context 1), consisting of an observation chamber with defined lightning, odor, background noise and geometry. After exploring this novel environment for 180 s the animals are exposed to a tone for 30 s followed by a mild electric foot shock for 2 s. On the basis of associative learning mice display aversive freezing behavior during a memory test consisting of re-expose to the conditioning context 24 h after the training. […] Tone-dependent fear memories can be analyzed by presenting the tone in context 2. Freezing is an inborn behavior that rodents express in threatening situations. It is defined as the complete absence of movement, except respiration and heartbeat. Whereas mice display no freezing behavior during training, a significant increase of freezing behavior is observed upon re-exposure to the conditioned context only. Therefore, freezing behavior is commonly used to quantify the amount of learning. Context-dependent fear conditioning requires the hippocampus whereas tone-dependent fear conditioning relies on an intact amygdala (Kim and Fanselow, 1992).

CK-p25 mice = test: p25-mediated cognitive decline, fear conditioning in CK-p25 mice; assay type: in vivo; settings: p25 induced for 5 weeks, icv. 5 μg/mouse 2-3×/week, vs. vehicle
Excerpt: as §1

[3] = icv. 5 μg/mouse for 7 consecutive days, training 24 h after last injection, memory test the following day
[4] = single icv. injection 5 μg/mouse immediately after training, test 24 h later

SMILES | freezing behavior during the context-dependent memory test (C57BL/6J mice; [3]) | freezing behavior during the tone-dependent memory test (C57BL/6J mice; [3]) | freezing behavior during the context-dependent memory test (C57BL/6J mice; [4]) | freezing behavior during the tone-dependent memory test (C57BL/6J mice; [4]) | freezing behavior during the context-dependent memory test (prevention of ethanol-induced impairment) (mice [1]; ip. 30 mg/kg resveratrol in 33% ethanol/PBS immediately after training, compared with PBS and ethanol groups, 30 mg/kg) | agonism of the Sirt1 deacetylase (Sirt1 deacetylase) | freezing behavior during the context-dependent memory test (mice [2]; i.h. 5 μg/mouse 4 h after the training) | freezing during the tone-dependent memory test (mice [2]; i.h. 5 μg/mouse immediately or 4 h after the training) | freezing behavior, memory retention 24 h after fear conditioning (CK-p25 mice) | freezing behavior during the context-dependent memory test (impairment by ethanol) (mice [1]; ip. 33% ethanol/PBS immediately after training)
Oc1ccc(C=Cc2cc(O)cc(O)c2)cc1 [resveratrol, 3,5,4′-tri-hydroxystilbene] | significantly increased freezing behavior | significantly increased freezing behavior | significantly increased freezing behavior; also recorded: significantly enhanced freezing | significantly increased freezing behavior | performed indistinguishable to mice injected only with PBS; also recorded: attenuated this effect | potent agonist | significantly enhanced freezing behavior | not different among groups | significantly enhanced | 
CCO [ethanol] |  |  |  |  |  |  |  |  |  | impaired freezing behavior; also recorded: severe impaired freezing
